The structures appear in SMILES notation.

Assay [1] has as its target T1, KRAS WT (Homo sapiens, UniProt P01116).
T1 construct: aa1-188 KRAS WT
Kind of assay: HTRF nucleotide exchange assay, KRAS WT. The format is biochemical. Conditions: HTRF nucleotide exchange assay (NEA), class symbols.

In assay [2] the target is T2, KRAS G12D (Homo sapiens, UniProt P01116, G12D).
T2 construct: aa1-188 KRAS WT, HRAS WT, NRAS WT, or KRAS containing the G12D
Nature of the assay: HTRF nucleotide exchange assay, KRAS G12D. The format is biochemical. The settings on record: HTRF nucleotide exchange assay (NEA), class symbols.

T1 sequence (P01116 1-188 isoform P01116-2): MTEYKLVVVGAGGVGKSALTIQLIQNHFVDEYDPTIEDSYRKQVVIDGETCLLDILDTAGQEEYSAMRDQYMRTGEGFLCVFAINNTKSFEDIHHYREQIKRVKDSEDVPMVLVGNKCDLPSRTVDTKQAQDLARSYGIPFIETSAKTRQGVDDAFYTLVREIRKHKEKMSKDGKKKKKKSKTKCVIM
T2 sequence (P01116 1-188 isoform P01116-2 G12D): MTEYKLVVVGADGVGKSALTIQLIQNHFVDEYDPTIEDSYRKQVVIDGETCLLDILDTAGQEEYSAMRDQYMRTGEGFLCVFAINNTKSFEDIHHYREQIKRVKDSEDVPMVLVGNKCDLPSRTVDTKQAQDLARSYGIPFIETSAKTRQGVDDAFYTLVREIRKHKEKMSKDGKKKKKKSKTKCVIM

Take `CCc1c(F)ccc2cc(O)cc(-c3c(F)c4nc(OCC56CCCN5CCC6)nc(N5CCOCC(C)(O)C5)c4c4cn(C)nc34)c12` (stereo not shown) [Example 160, 4-[4-(8-ethyl-7-fluoro-3-hydroxy-1-naphthyl)-5-fluoro-7-(1,2,3,5,6,7-hexahydropyrrolizin-8-ylmethoxy)-2-methyl-pyrazolo[4,3-f]quinazolin-9-yl]-6-methyl-1,4-oxazepan-6-ol]: the 50% inhibitory concentration (IC50) in assay [1] and in assay [2] was at most 10 nM in each case.
Regarding `CCc1c(F)ccc2cc(O)cc(-c3c(F)c4nc(OC[C@]5(C)CCCN5C)nc(N5CCOCC(C)(O)C5)c4c4cn(C)nc34)c12` (stereo partly drawn) [Example 161, 4-[4-(8-ethyl-7-fluoro-3-hydroxy-1-naphthyl)-5-fluoro-2-methyl-7-[[(2S)-1,2-dimethylpyrrolidin-2-yl]methoxy]pyrazolo[4,3-f]quinazolin-9-yl]-6-methyl-1,4-oxazepan-6-ol], the IC50 in assay [1] and in assay [2] was at most 10 nM each time.
As to `CCc1c(F)ccc2cc(O)cc(-c3c(F)c4nc(OCC5(CN6CCOCC6)CC5)nc(N5CCOCC(C)(O)C5)c4c4cn(C)nc34)c12` (stereo not shown) [Example 162, 4-[4-(8-ethyl-7-fluoro-3-hydroxy-1-naphthyl)-5-fluoro-2-methyl-7-[[1-(morpholinomethyl)cyclopropyl]methoxy]pyrazolo[4,3-f]quinazolin-9-yl]-6-methyl-1,4-oxazepan-6-ol], the concentration for half-maximal inhibition (IC50) in assay [1] and in assay [2] was at most 10 nM throughout.
As to `CCc1c(F)ccc2cc(O)cc(-c3c(F)c4nc(OCC5(CF)COC5)nc(N5CCOCC(C)(O)C5)c4c4cn(C)nc34)c12` (stereo not shown) [Example 163, 4-[4-(8-ethyl-7-fluoro-3-hydroxy-1-naphthyl)-5-fluoro-7-[[3-(fluoromethyl)oxetan-3-yl]methoxy]-2-methyl-pyrazolo[4,3-f]quinazolin-9-yl]-6-methyl-1,4-oxazepan-6-ol], the IC50 in assay [1] and in assay [2] was at most 10 nM in each case.
As to `CCc1c(F)ccc2cc(O)cc(-c3c(F)c4nc(OCC5(C#N)CCOC5)nc(N5CCOCC(C)(O)C5)c4c4cn(C)nc34)c12` (stereo not shown) [Example 164, 3-[[4-(8-ethyl-7-fluoro-3-hydroxy-1-naphthyl)-5-fluoro-9-(6-hydroxy-6-methyl-1,4-oxazepan-4-yl)-2-methyl-pyrazolo[4,3-f]quinazolin-7-yl]oxymethyl]tetrahydrofuran-3-carbonitrile], the values for the half-inhibitory concentration (IC50) in assay [1] and in assay [2] were 10 to 100 nM and at most 10 nM, respectively.
On the same counts, the results for `CCc1c(F)ccc2cc(O)cc(-c3c(F)c4nc(OCC56COC(COC)(C5)C6)nc(N5CCOCC(C)(O)C5)c4c4cn(C)nc34)c12` (stereo not shown) [Example 165, 4-[4-(8-ethyl-7-fluoro-3-hydroxy-1-naphthyl)-5-fluoro-7-[[1-(methoxymethyl)-2-oxabicyclo[2.1.1]hexan-4-yl]methoxy]-2-methyl-pyrazolo[4,3-f]quinazolin-9-yl]-6-methyl-1,4-oxazepan-6-ol] are 10 to 100 nM and at most 10 nM.
On to `CCc1c(F)ccc2cc(O)cc(-c3c(F)c4nc(OCC5(CN(CC)CC)CC5)nc(N5CCOCC(C)(O)C5)c4c4cn(C)nc34)c12` (stereo not shown) [Example 166, -[7-[[1-(diethylaminomethyl)cyclopropyl]methoxy]-4-[8-ethyl-7-fluoro-3-(methoxymethoxy)-1-naphthyl]-5-fluoro-2-methyl-pyrazolo[4,3-f]quinazolin-9-yl]-6-methyl-1,4-oxazepan-6-ol], for which the IC50 in assay [1] and in assay [2] was at most 10 nM each time.
With `CCc1c(F)ccc2cc(O)cc(-c3c(F)c4nc(OCC5(CF)COC5)nc(N5CC6CCC(C5)N6)c4c4cn(C)nc34)c12` [Example 167, 4-[9-(3,8-diazabicyclo[3.2.1]octan-3-yl)-5-fluoro-7-[[3-(fluoromethyl)oxetan-3-yl]methoxy]-2-methyl-pyrazolo[4,3-f]quinazolin-4-yl]-5-ethyl-6-fluoro-naphthalen-2-ol], the results for the IC50 in assay [1] and in assay [2] were 100 to 10000 nM and at most 10 nM, respectively.
On to `CCc1c(F)ccc2cc(O)cc(-c3c(F)c4nc(OCC5(C#N)CCOC5)nc(N5CC6CCC(C5)N6)c4c4cn(C)nc34)c12` (stereo not shown) [Example 168, 3-[[9-(3,8-diazabicyclo[3.2.1]octan-3-yl)-4-(8-ethyl-7-fluoro-3-hydroxy-1-naphthyl)-5-fluoro-2-methyl-pyrazolo[4,3-f]quinazolin-7-yl]oxymethyl]tetrahydrofuran-3-carbonitrile], for which the IC50 in assay [1] is 100 to 10000 nM; in assay [2], at most 10 nM.
The matching figures for `CCc1c(F)ccc2cc(O)cc(-c3c(F)c4nc(OCC56COC(COC)(C5)C6)nc(N5CC6CCC(C5)N6)c4c4cn(C)nc34)c12` [Example 169, 4-[9-(3,8-diazabicyclo[3.2.1]octan-3-yl)-5-fluoro-7-[[1-(methoxymethyl)-2-oxabicyclo[2.1.1]hexan-4-yl]methoxy]-2-methyl-pyrazolo[4,3-f]quinazolin-4-yl]-5-ethyl-6-fluoro-naphthalen-2-ol]: 100 to 10000 nM and at most 10 nM.
On the same counts, the results for `CCc1c(F)ccc2cc(O)cc(-c3c(F)c4nc(OCC5(CN6CCC(C#N)C6)CC5)nc(N5CCOCC(C)(O)C5)c4c4cn(C)nc34)c12` (stereo not shown) [Example 170, 1-[[1-[[4-(8-ethyl-7-fluoro-3-hydroxy-1-naphthyl)-5-fluoro-9-(6-hydroxy-6-methyl-1,4-oxazepan-4-yl)-2-methyl-pyrazolo[4,3-f]quinazolin-7-yl]oxymethyl]cyclopropyl]methyl]pyrrolidine-3-carbonitrile] are at most 10 nM and at most 10 nM.
On to `CCc1c(F)ccc2cc(O)cc(-c3c(F)c4nc(OCC5(CN6CC(C#N)C6)CC5)nc(N5CCOCC(C)(O)C5)c4c4cn(C)nc34)c12` (stereo not shown) [Example 171, 1-[[1-[[4-(8-ethyl-7-fluoro-3-hydroxy-1-naphthyl)-5-fluoro-9-(6-hydroxy-6-methyl-1,4-oxazepan-4-yl)-2-methyl-pyrazolo[4,3-f]quinazolin-7-yl]oxymethyl]cyclopropyl]methyl]azetidine-3-carbonitrile], for which the half-maximal inhibitory concentration (IC50) in assay [1] and in assay [2] was at most 10 nM throughout.
`CCc1c(F)ccc2cc(O)cc(-c3c(F)c4nc(OCC5(CN6CCCCC6)CC5)nc(N5CCOCC(C)(O)C5)c4c4cn(C)nc34)c12` (stereo not shown) [Example 172, 4-[4-(8-ethyl-7-fluoro-3-hydroxy-1-naphthyl)-5-fluoro-2-methyl-7-[[1-(1-piperidylmethyl)cyclopropyl]methoxy]pyrazolo[4,3-f]quinazolin-9-yl]-6-methyl-1,4-oxazepan-6-ol]: the IC50 in assay [1] and in assay [2] was at most 10 nM throughout.
`Cc1cc2[nH]ncc2c(-c2c(C)c3nc(OCC45CCCN4CC(F)C5)nc(N4CCOCC(C)(O)C4)c3c3cn(C)nc23)c1Cl` [Example 173, 4-[4-(5-chloro-6-methyl-1H-indazol-4-yl)-2,5-dimethyl-7-[[(2R,8S)-2-fluoro-1,2,3,5,6,7-hexahydropyrrolizin-8-yl]methoxy]pyrazolo[4,3-f]quinazolin-9-yl]-6-methyl-1,4-oxazepan-6-ol]: the IC50 in assay [1] is 100 to 10000 nM; in assay [2], 10 to 100 nM.
On the same counts, the results for `CCc1c(F)ccc2cc(O)cc(-c3c(F)c4nc(OC[C@@]56CCCN5C[C@H](F)C6)nc(N5C[C@H]6COC[C@H]6C5)c4c4cn(C)nc34)c12` [Example 174, 5-ethyl-6-fluoro-4-[5-fluoro-2-methyl-9-[(3aR,6aS)-1,3,3a,4,6,6a-hexahydrofuro[3,4-c]pyrrol-5-yl]-7-[[(2R,8S)-2-fluoro-1,2,3,5,6,7-hexahydropyrrolizin-8-yl]methoxy]pyrazolo[4,3-f]quinazolin-4-yl]naphthalen-2-ol] are at most 10 nM and at most 10 nM.
Turning to `CCc1c(F)ccc2cc(O)cc(-c3c(F)c4nc(OC[C@@]56CCCN5C[C@H](F)C6)nc(N5C[C@H]6COC[C@@H]6C5)c4c4cn(C)nc34)c12` [Example 175, 5-ethyl-6-fluoro-4-[5-fluoro-2-methyl-9-[(3aS,6aS)-1,3,3a,4,6,6a-hexahydrofuro[3,4-c]pyrrol-5-yl]-7-[[(2R,8S)-2-fluoro-1,2,3,5,6,7-hexahydropyrrolizin-8-yl]methoxy]pyrazolo[4,3-f]quinazolin-4-yl]naphthalen-2-ol], the concentration for half-maximal inhibition (IC50) in assay [1] fell in the range of 10 to 100 nM; in assay [2], 100 to 10000 nM.
`CCc1c(F)ccc2cc(O)cc(-c3c(F)c4nc(OC[C@@]56CCCN5C[C@H](F)C6)nc(N5CCCC(C#N)C5)c4c4cn(C)nc34)c12` (stereo partly drawn) [Example 176, 1-[4-(8-ethyl-7-fluoro-3-hydroxy-1-naphthyl)-5-fluoro-2-methyl-7-[[(2R,8S)-2-fluoro-1,2,3,5,6,7-hexahydropyrrolizin-8-yl]methoxy]pyrazolo[4,3-f]quinazolin-9-yl]piperidine-3-carbonitrile]: the IC50 in assay [1] and in assay [2] was at most 10 nM throughout.
On to `CCc1c(F)ccc2cc(O)cc(-c3c(F)c4nc(OC[C@@]56CCCN5C[C@H](F)C6)nc(N5CCC(O)CC5)c4c4cn(C)nc34)c12` [Example 177, 1-[4-(8-ethyl-7-fluoro-3-hydroxy-1-naphthyl)-5-fluoro-2-methyl-7-[[(2R,8S)-2-fluoro-1,2,3,5,6,7-hexahydropyrrolizin-8-yl]methoxy]pyrazolo[4,3-f]quinazolin-9-yl]piperidin-4-ol], for which the 50% inhibitory concentration (IC50) in assay [1] and in assay [2] was at most 10 nM in each case.
On to `CCc1c(F)ccc2cc(O)cc(-c3c(F)c4nc(OC[C@@]56CCCN5C[C@H](F)C6)nc(N5CCC[C@@H](O)C5)c4c4cn(C)nc34)c12` [Example 178, (3R)-1-[4-(8-ethyl-7-fluoro-3-hydroxy-1-naphthyl)-5-fluoro-2-methyl-7-[[(2R,8S)-2-fluoro-1,2,3,5,6,7-hexahydropyrrolizin-8-yl]methoxy]pyrazolo[4,3-f]quinazolin-9-yl]piperidin-3-ol], for which the IC50 in assay [1] and in assay [2] was at most 10 nM each time.
Consider `CCc1c(F)ccc2cc(O)cc(-c3c(F)c4nc(OC[C@@]56CCCN5C[C@H](F)C6)nc(N5CC6CCC5CN6)c4c4cn(C)nc34)c12` (stereo partly drawn) [Example 179, 4-[9-(2,5-diazabicyclo[2.2.2]octan-2-yl)-5-fluoro-2-methyl-7-[[(2R,8S)-2-fluoro-1,2,3,5,6,7-hexahydropyrrolizin-8-yl]methoxy]pyrazolo[4,3-f]quinazolin-4-yl]-5-ethyl-6-fluoro-naphthalen-2-ol], for which the IC50 in assay [1] and in assay [2] was at most 10 nM throughout.

Source of the values: patent US20260347364A1, “PYRAZOLO[4,3-F]QUINAZOLINE DERIVATIVES AS MODULATORS OF G12D MUTANT KRAS USEFUL FOR THE TREATMENT OF CANCER” (JAZZ PHARMACEUTICALS IRELAND LTD., priority 2023, published 2026).
